According to patent US10208089B2, “Modulation of complement activity” (priority 2014, dated 2019):
pIC50: −log10 of the molar value. Starred links: 1 amine or outer side, 2 acyl side, 3 side chain; linkers in the order of their positions; H or OH if unused. Positions of bridges follow the written chain, without caps; N, C: chain ends. Non-standard residues stand in square brackets, D forms with d. Residues, ends and D or L forms follow the SMILES beside them. Trp(7-aza) = N[C@@H](Cc1c[nH]c2ncccc12)C(=O)O; mXylylene = c1cc(C[*:1])cc(C[*:2])c1; Phg = N[C@H](C(=O)O)c1ccccc1; Tle = CC(C)(C)[C@H](N)C(=O)O; NMeS = CN[C@@H](CO)C(=O)O; Nva = CCC[C@H](N)C(=O)O; Sar = CNCC(=O)O

Molecular target: C5 (Homo sapiens, UniProt P01031)
Experiment: Human hemolysis assay (RBC lysis assay using complete human sera)
Format: cell-based
Design: with complete human sera (Complement Technology, Tyler Tex.) and polypeptides; tissue Complement Technology, Tyler Tex; host or cells: complete human serum
Conditions: 7-azatryptophan variant polypeptides of R3002; inhibition of red blood cell lysis

Sequence of C5 (P01031 19-1676): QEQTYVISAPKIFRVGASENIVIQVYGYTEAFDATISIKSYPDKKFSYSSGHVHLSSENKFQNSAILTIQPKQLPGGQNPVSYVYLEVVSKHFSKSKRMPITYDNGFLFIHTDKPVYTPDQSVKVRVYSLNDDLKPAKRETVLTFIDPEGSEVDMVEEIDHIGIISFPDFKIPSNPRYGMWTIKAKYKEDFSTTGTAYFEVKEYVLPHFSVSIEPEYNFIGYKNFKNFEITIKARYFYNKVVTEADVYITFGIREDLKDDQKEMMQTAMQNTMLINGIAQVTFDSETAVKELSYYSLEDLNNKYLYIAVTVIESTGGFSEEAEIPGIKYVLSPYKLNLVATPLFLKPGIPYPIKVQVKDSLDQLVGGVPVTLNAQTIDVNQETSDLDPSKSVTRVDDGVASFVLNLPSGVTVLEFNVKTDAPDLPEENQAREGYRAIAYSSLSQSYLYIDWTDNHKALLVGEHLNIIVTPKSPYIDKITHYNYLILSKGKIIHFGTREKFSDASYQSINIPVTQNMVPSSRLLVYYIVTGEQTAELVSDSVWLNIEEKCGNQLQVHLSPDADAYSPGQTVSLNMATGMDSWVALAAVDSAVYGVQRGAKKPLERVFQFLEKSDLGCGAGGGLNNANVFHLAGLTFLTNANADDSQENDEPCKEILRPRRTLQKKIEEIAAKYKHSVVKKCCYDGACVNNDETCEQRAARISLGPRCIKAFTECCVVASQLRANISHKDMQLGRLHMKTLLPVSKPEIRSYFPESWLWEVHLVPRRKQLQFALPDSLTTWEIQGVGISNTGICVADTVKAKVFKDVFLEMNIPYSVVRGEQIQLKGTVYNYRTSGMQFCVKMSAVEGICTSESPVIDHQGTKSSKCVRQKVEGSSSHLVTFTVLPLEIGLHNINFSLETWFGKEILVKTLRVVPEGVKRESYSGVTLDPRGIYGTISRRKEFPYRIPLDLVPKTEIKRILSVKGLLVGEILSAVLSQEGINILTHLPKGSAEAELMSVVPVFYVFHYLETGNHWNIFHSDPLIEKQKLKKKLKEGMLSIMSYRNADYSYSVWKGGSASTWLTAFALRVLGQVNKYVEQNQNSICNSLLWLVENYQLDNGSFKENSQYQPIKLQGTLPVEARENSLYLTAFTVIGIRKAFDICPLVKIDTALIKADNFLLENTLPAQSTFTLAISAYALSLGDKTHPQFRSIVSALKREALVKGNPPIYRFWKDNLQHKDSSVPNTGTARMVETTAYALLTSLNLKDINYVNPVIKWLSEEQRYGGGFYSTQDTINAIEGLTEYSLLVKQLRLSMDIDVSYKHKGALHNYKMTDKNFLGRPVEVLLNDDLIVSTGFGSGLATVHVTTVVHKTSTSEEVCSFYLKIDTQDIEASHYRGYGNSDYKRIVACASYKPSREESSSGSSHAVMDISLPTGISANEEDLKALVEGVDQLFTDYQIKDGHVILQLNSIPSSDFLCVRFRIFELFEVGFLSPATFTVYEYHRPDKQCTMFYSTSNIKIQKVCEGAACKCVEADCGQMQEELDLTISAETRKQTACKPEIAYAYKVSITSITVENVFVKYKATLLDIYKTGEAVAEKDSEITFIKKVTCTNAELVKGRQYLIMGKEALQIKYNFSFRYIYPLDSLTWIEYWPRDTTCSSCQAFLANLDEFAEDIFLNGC

Row | Structure (SMILES) | pIC50
1 | CCC[C@H](NC(=O)[C@@H](NC(=O)[C@@H]1CCCN1C(=O)[C@H](Cc1ccc(O)cc1)NC(=O)[C@H](CCC(=O)O)NC(=O)[C@@H]1CSCc2cccc(c2)CSC[C@H](NC(=O)[C@H](CCC)NC(C)=O)C(=O)N[C@@H](Cc2ccc(O)cc2)C(=O)N[C@@H](CCC(=O)O)C(=O)N[C@@H](CC(N)=O)C(=O)N[C@@H](C(C)(C)C)C(=O)N[C@@H](Cc2ccc(O)cc2)C(=O)N1)c1ccccc1)C(N)=O [Compound R3017, [mXylyl(2,8)]Ac-Nvl-C-Y-E-N-Tbg-Y-C-E-Y-P-Phg-Nvl-NH2] (Ac-[Nva]CYEN[Tle]YCEYP[Phg][Nva]-NH2; linker 2-8 via mXylylene) | < 4.00

Same assay, conditions: 7-azatryptophan variant polypeptides of R3008; inhibition of red blood cell lysis

Row | Structure (SMILES) | pIC50
2 | CCC[C@H](NC(=O)[C@@H]1CSCc2cccc(c2)CSC[C@H](NC(=O)[C@H](CCC)NC(C)=O)C(=O)N[C@@H](c2ccccc2)C(=O)N[C@@H]([C@@H](C)O)C(=O)N[C@@H](C)C(=O)N[C@@H](CCC(=O)O)C(=O)N[C@@H](Cc2ccc(O)cc2)C(=O)N(C)[C@@H](CO)C(=O)N[C@@H](Cc2c[nH]cn2)C(=O)N1)C(N)=O [Compound R3034, [mXylyl(2,10)]Ac-Nvl-C-Phg-T-A-E-Y-(N-Me)S-H-C-Nvl-NH2] (Ac-[Nva]C[Phg]TAEY[NMeS]HC[Nva]-NH2; linker 2-10 via mXylylene) | < 4.30

Same assay, conditions: inhibition of lysis of antibody-sensitized sheep erythrocytes, complete human sera

Row | Structure (SMILES) | pIC50
3 | CCC[C@H](NC(=O)[C@@H]1CCCN1C(=O)[C@H](CCC)NC(=O)[C@@H]1CSCc2cccc(c2)CSC[C@H](NC(=O)[C@H](CCC)NC(C)=O)C(=O)N[C@@H](Cc2ccc(O)cc2)C(=O)N[C@@H](CCC(=O)O)C(=O)N(C)CC(=O)N[C@@H](C(C)(C)C)C(=O)N[C@@H](Cc2ccc(O)cc2)C(=O)N[C@@H](Cc2c[nH]c3ncccc23)C(=O)N[C@@H](CCC(=O)O)C(=O)N1)C(N)=O [Compound R3009, [mXylyl(2,10)]Ac-Nvl-C-Y-E-(N-Me)G-Tbg-Y-azaTrp-E-C-Nvl-P-Nvl-NH2] (Ac-[Nva]CYE[Sar][Tle]Y[Trp(7-aza)]EC[Nva]P[Nva]-NH2; linker 2-10 via mXylylene) | < 4.00
4 | CCC[C@H](NC(C)=O)C(=O)N[C@H]1CSCc2cccc(c2)CSC[C@@H](C(N)=O)NC(=O)[C@@H]2CCCN2C(=O)[C@H](CCC)NC(=O)[C@H](CCC)NC(=O)[C@H](CCC(=O)O)NC(=O)[C@H](Cc2c[nH]c3ncccc23)NC(=O)[C@H](Cc2ccc(O)cc2)NC(=O)[C@H](C(C)(C)C)NC(=O)CN(C)C(=O)[C@H](CCC(=O)O)NC(=O)[C@H](Cc2ccc(O)cc2)NC1=O [Compound R3010, [mXylyl(2,13)]Ac-Nvl-C-Y-E-(N-Me)G-Tbg-Y-azaTrp-E-Nvl-Nvl-P-C-NH2] (Ac-[Nva]CYE[Sar][Tle]Y[Trp(7-aza)]E[Nva][Nva]PC-NH2; linker 2-13 via mXylylene) | < 4.00
5 | CCC[C@H](NC(=O)[C@@H]1CSCc2cccc(c2)CSC[C@H](NC(=O)[C@H](CCC)NC(C)=O)C(=O)N[C@@H](c2ccccc2)C(=O)N[C@@H]([C@@H](C)O)C(=O)N[C@@H](Cc2c[nH]c3ncccc23)C(=O)N[C@@H](CCC(=O)O)C(=O)N[C@@H](Cc2ccc(O)cc2)C(=O)N(C)[C@@H](CO)C(=O)N[C@@H](Cc2c[nH]cn2)C(=O)N1)C(N)=O [Compound R3012, [mXylyl(2,10)]Ac-Nvl-C-Phg-T-azaTrp-E-Y-(N-Me)S-H-C-Nvl-NH2] (Ac-[Nva]C[Phg]T[Trp(7-aza)]EY[NMeS]HC[Nva]-NH2; linker 2-10 via mXylylene) | 6.83
6 | CCC[C@H](NC(C)=O)C(=O)N[C@H]1CSCc2cccc(c2)CSC[C@@H](C(N)=O)NC(=O)[C@H](Cc2c[nH]cn2)NC(=O)[C@H](CO)N(C)C(=O)[C@H](Cc2ccc(O)cc2)NC(=O)[C@H](CCC(=O)O)NC(=O)[C@H](Cc2c[nH]c3ncccc23)NC(=O)[C@H]([C@@H](C)O)NC(=O)[C@H](c2ccccc2)NC1=O [Compound R3013, [mXyly1(2,10)]Ac-Nvl-C-Phg-T-azaTrp-E-Y-(N-Me)S-H-C-NH2] (Ac-[Nva]C[Phg]T[Trp(7-aza)]EY[NMeS]HC-NH2; linker 2-10 via mXylylene) | 6.46
7 | CC(=O)N[C@H]1CSCc2cccc(c2)CSC[C@@H](C(N)=O)NC(=O)[C@H](Cc2c[nH]cn2)NC(=O)[C@H](CO)N(C)C(=O)[C@H](Cc2ccc(O)cc2)NC(=O)[C@H](CCC(=O)O)NC(=O)[C@H](Cc2c[nH]c3ncccc23)NC(=O)[C@H](Cc2ccc(O)cc2)NC(=O)[C@H](C(C)(C)C)NC1=O [Compound R3016, [mXylyl(1,9)]Ac-C-Tbg-Y-azaTrp-E-Y-(N-Me)S-H-C-NH2] (Ac-C[Tle]Y[Trp(7-aza)]EY[NMeS]HC-NH2; linker 1-9 via mXylylene) | < 4.89
8 | CCC[C@H](NC(=O)[C@@H](NC(=O)[C@@H]1CCCN1C(=O)[C@H](Cc1ccc(O)cc1)NC(=O)[C@H](CCC(=O)O)NC(=O)[C@@H]1CSCc2cccc(c2)CSC[C@H](NC(=O)[C@H](CCC)NC(C)=O)C(=O)N[C@@H](Cc2ccc(O)cc2)C(=O)N[C@@H](CCC(=O)O)C(=O)N[C@@H](CC(N)=O)C(=O)N[C@@H](C(C)(C)C)C(=O)N[C@@H](Cc2ccc(O)cc2)C(=O)N1)c1ccccc1)C(N)=O [Compound R3017, [mXylyl(2,8)]Ac-Nvl-C-Y-E-N-Tbg-Y-C-E-Y-P-Phg-Nvl-NH2] (Ac-[Nva]CYEN[Tle]YCEYP[Phg][Nva]-NH2; linker 2-8 via mXylylene) | < 4.00
9 | CCC[C@H](NC(=O)[C@@H](NC(=O)[C@@H]1CCCN1C(=O)[C@@H]1CSCc2cccc(c2)CSC[C@H](NC(=O)[C@H](CCC)NC(C)=O)C(=O)N[C@@H](Cc2ccc(O)cc2)C(=O)N[C@@H](CCC(=O)O)C(=O)N[C@@H](CC(N)=O)C(=O)N[C@@H](C(C)(C)C)C(=O)N[C@@H](Cc2ccc(O)cc2)C(=O)N[C@@H](Cc2c[nH]c3ncccc23)C(=O)N[C@@H](CCC(=O)O)C(=O)N1)c1ccccc1)C(N)=O [Compound R3018, [mXylyl(2,10)]Ac-Nvl-C-Y-E-N-Tbg-Y-azaTrp-E-C-P-Phg-Nvl-NH2] (Ac-[Nva]CYEN[Tle]Y[Trp(7-aza)]ECP[Phg][Nva]-NH2; linker 2-10 via mXylylene) | < 5.24
10 | CCC[C@H](NC(C)=O)C(=O)N[C@H]1CSCc2cccc(c2)CSC[C@@H](C(N)=O)NC(=O)[C@H](CCC)NC(=O)[C@H](c2ccccc2)NC(=O)[C@@H]2CCCN2C(=O)[C@H](Cc2ccc(O)cc2)NC(=O)[C@H](CCC(=O)O)NC(=O)[C@H](Cc2c[nH]c3ncccc23)NC(=O)[C@H](Cc2ccc(O)cc2)NC(=O)[C@H](C(C)(C)C)NC(=O)[C@H](CC(N)=O)NC(=O)[C@H](CCC(=O)O)NC(=O)[C@H](Cc2ccc(O)cc2)NC1=O [Compound R3019, [mXylyl(2,14)]Ac-Nvl-C-Y-E-N-Tbg-Y-azaTrp-E-Y-P-Phg-Nvl-C-NH2] (Ac-[Nva]CYEN[Tle]Y[Trp(7-aza)]EYP[Phg][Nva]C-NH2; linker 2-14 via mXylylene) | 5.88
11 | CSCC[C@H](N)C(=O)N[C@H]1CSCc2cccc(c2)CSC[C@@H](C(=O)N[C@@H](CCC(=O)O)C(=O)N[C@H](C(=O)N[C@@H](CCCNC(=N)N)C(=O)N[C@@H](Cc2c[nH]c3ccccc23)C(=O)N[C@@H](CCC(=O)O)C(=O)N[C@@H](Cc2ccc(O)cc2)C(N)=O)C(C)C)NC(=O)[C@H](Cc2ccc(O)cc2)NC(=O)[C@H](CCCNC(=N)N)NC(=O)[C@H](CCC(=O)O)NC(=O)[C@H](CO)NC1=O [Compound R3020, [mXylyl(2,7)]M-C-S-E-R-Y-C-E-V-R-W-E-Y-NH2] (H-MCSERYCEVRWEY-NH2; linker 2-7 via mXylylene) | 7.61
12 | CCC[C@H](NC(=O)[C@@H]1CCCN1C(=O)[C@H](CCC)NC(=O)[C@H](CS)NC(=O)[C@H](Cc1c[nH]cn1)NC(=O)[C@H](CO)N(C)C(=O)[C@H](Cc1ccc(O)cc1)NC(=O)[C@H](CCC(=O)O)NC(=O)[C@H](Cc1c[nH]c2ncccc12)NC(=O)[C@@H](NC(=O)[C@@H](NC(=O)[C@H](CS)NC(=O)[C@H](CCC)NC(C)=O)c1ccccc1)[C@@H](C)O)C(N)=O [Compound R3022, Ac-Nvl-C-Phg-T-azaTrp-E-Y-(N-Me)S-H-C-Nvl-P-Nvl-NH2] (Ac-[Nva]C[Phg]T[Trp(7-aza)]EY[NMeS]HC[Nva]P[Nva]-NH2) | < 4.99
13 | CCC[C@H](NC(=O)[C@@H](NC(=O)[C@@H]1CCCN1C(=O)[C@H](Cc1ccc(O)cc1)NC(=O)[C@H](CCC(=O)O)NC(=O)[C@H](Cc1c[nH]c2ncccc12)NC(=O)[C@H](Cc1ccc(O)cc1)NC(=O)[C@@H](NC(C)=O)C(C)(C)C)c1ccccc1)C(N)=O [Compound R3028, Ac-Tbg-Y-azaTrp-E-Y-P-Phg-Nvl-NH2] (Ac-[Tle]Y[Trp(7-aza)]EYP[Phg][Nva]-NH2) | < 5.00
14 | CCC[C@H](NC(=O)[C@@H]1CSCc2cccc(c2)CSC[C@H](NC(=O)[C@H](C)NC(C)=O)C(=O)N[C@@H](c2ccccc2)C(=O)N[C@@H]([C@@H](C)O)C(=O)N[C@@H](Cc2c[nH]c3ncccc23)C(=O)N[C@@H](CCC(=O)O)C(=O)N[C@@H](Cc2ccc(O)cc2)C(=O)N(C)[C@@H](CO)C(=O)N[C@@H](Cc2c[nH]cn2)C(=O)N1)C(N)=O [Compound R3031, [mXylyl(2,10)]Ac-A-C-Phg-T-azaTrp-E-Y-(N-Me)S-H-C-Nvl-NH2] (Ac-AC[Phg]T[Trp(7-aza)]EY[NMeS]HC[Nva]-NH2; linker 2-10 via mXylylene) | 5.96
15 | CCC[C@H](NC(=O)[C@@H]1CSCc2cccc(c2)CSC[C@H](NC(=O)[C@H](CCC)NC(C)=O)C(=O)N[C@@H](C)C(=O)N[C@@H]([C@@H](C)O)C(=O)N[C@@H](Cc2c[nH]c3ncccc23)C(=O)N[C@@H](CCC(=O)O)C(=O)N[C@@H](Cc2ccc(O)cc2)C(=O)N(C)[C@@H](CO)C(=O)N[C@@H](Cc2c[nH]cn2)C(=O)N1)C(N)=O [Compound R3032, [mXylyl(2,10)]Ac-Nvl-C-A-T-azaTrp-E-Y-(N-Me)S-H-C-Nvl-NH2] (Ac-[Nva]CAT[Trp(7-aza)]EY[NMeS]HC[Nva]-NH2; linker 2-10 via mXylylene) | < 5.00
16 | CCC[C@H](NC(=O)[C@@H]1CSCc2cccc(c2)CSC[C@H](NC(=O)[C@H](CCC)NC(C)=O)C(=O)N[C@@H](c2ccccc2)C(=O)N[C@@H](C)C(=O)N[C@@H](Cc2c[nH]c3ncccc23)C(=O)N[C@@H](CCC(=O)O)C(=O)N[C@@H](Cc2ccc(O)cc2)C(=O)N(C)[C@@H](CO)C(=O)N[C@@H](Cc2c[nH]cn2)C(=O)N1)C(N)=O [Compound R3033, [mXylyl(2,10)]Ac-Nvl-C-Phg-A-azaTrp-E-Y-(N-Me)S-H-C-Nvl-NH2] (Ac-[Nva]C[Phg]A[Trp(7-aza)]EY[NMeS]HC[Nva]-NH2; linker 2-10 via mXylylene) | 6.88
17 | CCC[C@H](NC(=O)[C@@H]1CSCc2cccc(c2)CSC[C@H](NC(=O)[C@H](CCC)NC(C)=O)C(=O)N[C@@H](c2ccccc2)C(=O)N[C@@H]([C@@H](C)O)C(=O)N[C@@H](C)C(=O)N[C@@H](CCC(=O)O)C(=O)N[C@@H](Cc2ccc(O)cc2)C(=O)N(C)[C@@H](CO)C(=O)N[C@@H](Cc2c[nH]cn2)C(=O)N1)C(N)=O [Compound R3034, [mXylyl(2,10)]Ac-Nvl-C-Phg-T-A-E-Y-(N-Me)S-H-C-Nvl-NH2] (Ac-[Nva]C[Phg]TAEY[NMeS]HC[Nva]-NH2; linker 2-10 via mXylylene) | < 4.30
18 | CCC[C@H](NC(=O)[C@@H]1CSCc2cccc(c2)CSC[C@H](NC(=O)[C@H](CCC)NC(C)=O)C(=O)N[C@@H](c2ccccc2)C(=O)N[C@@H]([C@@H](C)O)C(=O)N[C@@H](Cc2c[nH]c3ncccc23)C(=O)N[C@@H](C)C(=O)N[C@@H](Cc2ccc(O)cc2)C(=O)N(C)[C@@H](CO)C(=O)N[C@@H](Cc2c[nH]cn2)C(=O)N1)C(N)=O [Compound R3035, [mXylv1(2,10)]Ac-Nvl-C-Phg-T-azaTrp-A-Y-(N-Me)S-H-C-Nvl-NH2] (Ac-[Nva]C[Phg]T[Trp(7-aza)]AY[NMeS]HC[Nva]-NH2; linker 2-10 via mXylylene) | < 4.30
